Broadly, the EC50 is the concentration that produces a half-maximal response.

The values that follow come from article PMC12722636, “Structural Pharmacology of Bufotenine Derivatives in Activating the 5-HT1A Receptor for Therapeutic Potential in Depression and Anxiety” (Research, 2025).

Read-outs that look alike come from different tables or passages of the source.

For data set [1], the system named is PCPA-induced mouse model of depression and anxiety. As to the kind of experiment: Sucrose preference test (SPT) in PCPA model. The following applies: for Sucrose preference: PCPA model, 5-OH-DMT 15 mg/kg i.p. or WAY100635 1 mg/kg i.p. for 3 d, versus control or model group, Fig. 6H. It counts as in vivo, C57BL/6 male mice. As to the method: (§1) Mice in the control group were fed with saline solution containing 0.1% DMSO (vehicle) for 3 d. Mice that were injected subcutaneously with 150 mg/kg PCPA twice daily for 3 d developed symptoms of depression. […] For WAY100635 treatment, mice were injected intraperitoneally with 1 mg/kg WAY100635 for 3 d. […] Then, mice were tested for all behaviors.

The test system is the same in data set [2]. Put plainly: Forced swimming test (FST) in PCPA model. It counts as in vivo, C57BL/6 male mice. Conditions: for Immobility time in FST: PCPA model, 5-OH-DMT 15 mg/kg i.p. or WAY100635 1 mg/kg i.p. for 3 d, versus control or model group, Fig. 6G. As to the method: as §1
Data set [3] has the same test system. Put plainly: Tail suspension test (TST) in PCPA model. It counts as in vivo, C57BL/6 male mice. Conditions: for Immobility time in TST: PCPA model, 5-OH-DMT 15 mg/kg i.p. or WAY100635 1 mg/kg i.p. for 3 d, versus control or model group, Fig. 6F. As to the method: as §1
Data set [4] has the same test system. Put plainly: Open-field test (OFT) in PCPA model. The following applies: for OFT time spent in center / OFT total distance traveled: PCPA model, 5-OH-DMT 15 mg/kg i.p. or WAY100635 1 mg/kg i.p. for 3 d, versus control or PCPA mice, Fig. 6I. It counts as in vivo, C57BL/6 male mice. As to the method: as §1
Data set [5] addresses T1, 5-HT2A receptor (Homo sapiens, UniProt P28223).
T1 construct: expressed in transfected cells; host or cells: HEK 293T
Put plainly: cell-based. It counts as cell-based.
From the text: We evaluated the impact of bufotenine derivatives on 6 serotonin receptor subtypes associated with depression (5-HT1A, 5-HT1B, 5-HT1D, 5-HT2A, 5-HT2C, and 5-HT7) using the GloSensor cAMP assay to measure Gi and Gs activation and the IP-One assay to assess Gq activation, thereby detecting signaling activity at each receptor. […] We conducted a thorough pharmacological analysis of bufotenine derivatives to evaluate their hallucinogenic potential via 5-HT2AR activation, comparing their receptor binding profiles and functional activities at 5-HT1AR and 5-HT2AR subtypes.
The downstream Gαq signaling of 5-HT2A was evaluated using the IP-One HTRF assay (Cisbio). HEK 293T cells were cultured in DMEM with 10% FBS and 1% penicillin–streptomycin at 37 °C, 5% CO2. After 24 h of transfection, cells were resuspended in stimulation buffer (8 × 10^5 cells/ml) and plated at 7 μl/well into 384-well plates. Ligands diluted in buffer (7 μl) were added and incubated for 1 h at 37 °C. IP-One-d2 and anti-IP-One cryptate (3 μl each) were then added, followed by 30-min incubation at room temperature. HTRF signals were measured using an EnVision reader (PerkinElmer).
(§3) An evaluation of the concentration–response curves was carried out using a logistic equation with 3 parameters. Calculations of pEC50 values were performed with the use of the sigmoid 3-parameter equation. In order to assess the significance, a 1-way or 2-way analysis of variance was conducted, followed by Bonferroni’s or Dunnett’s post hoc test. Differences were considered significant when P < 0.05 and are shown as *P < 0.05, **P < 0.01, or ***P < 0.001.

The subject of data set [6] is CUMS model mice. Put plainly: Sucrose preference test (SPT) in CUMS depression model. The following applies: 15 mg/kg i.p. for 1 week, versus CUMS model, Fig. 6C.
The test system of data set [7] is CUMS model mice. As to the kind of experiment: Open-field test (OFT) in CUMS depression model. The following applies: 15 mg/kg i.p. for 1 week; for OFT time spent in the center / OFT total distance traveled: CUMS mice, regardless of 5-HT1AR knockdown, Fig. 6D.
Data set [8] relates to 5-HT1A A365^6.55F mutant. Put plainly: GloSensor cAMP assay on 5-HT1A mutant A365F. The following applies: mutant versus WT 5-HT1A, fold less potent, Fig. S7E.
Method: In order to examine the underlying mechanism of ligand selectivity, we introduced a mutation at position A365^6.55, replacing it with phenylalanine.
(§4) The downstream Gαi signaling of 5-HT1A was assessed using the GloSensor cAMP assay (Promega). HEK 293T cells were cultured in DMEM with 10% FBS and 1% penicillin–streptomycin at 37 °C and 5% CO2. Cells were transfected with 5-HT1A constructs and the GloSensor-22F biosensor at a 3:2 ratio. After 24 h, cells were resuspended in CO2-independent medium with 2% GloSensor reagent and plated at 3.5 × 10^5 cells/ml (20 μl/well) into 384-well plates. After 1-h incubation, forskolin (1 μM) and test ligands were added, and luminescence was immediately recorded using an EnVision plate reader (PerkinElmer).
WT or mutant were transfected into HEK293T cells and Glosenser cAMP assay were measured to reflect the activity of 5-HT1AR. The response data was normalized by WT receptor within each individual experiment, with the basal activity for WT as 0, while the fitted Emax of WT as 100. Three independent experiments were conducted (n=3).
In data set [9] the test system is mice. As to the kind of experiment: Head-twitch response (HTR), side effect detection. It counts as in vivo, C57BL/6 male mice. Conditions: 25 mg/kg i.p., recorded 10 min, in contrast to 5-MeO-DMT, Fig. S10. As to the method: (§2) Then, HTR and HLA were immediately tested. Mice were placed into the observation arena (25 × 25 × 40 cm) under low-light conditions. The number of head-twitch events and total distance were respectively recorded for 10 and 30 min. For the HTR test, the number of head twitches was examined by 2 observers blinded to the treatments via video recordings. For the HLA test, the total distance traveled was measured by using tracking software to process video recordings.

For data set [10], the target named is T2, 5-HT1A receptor (Homo sapiens, UniProt P08908).
T2 sequence (P08908 1-422): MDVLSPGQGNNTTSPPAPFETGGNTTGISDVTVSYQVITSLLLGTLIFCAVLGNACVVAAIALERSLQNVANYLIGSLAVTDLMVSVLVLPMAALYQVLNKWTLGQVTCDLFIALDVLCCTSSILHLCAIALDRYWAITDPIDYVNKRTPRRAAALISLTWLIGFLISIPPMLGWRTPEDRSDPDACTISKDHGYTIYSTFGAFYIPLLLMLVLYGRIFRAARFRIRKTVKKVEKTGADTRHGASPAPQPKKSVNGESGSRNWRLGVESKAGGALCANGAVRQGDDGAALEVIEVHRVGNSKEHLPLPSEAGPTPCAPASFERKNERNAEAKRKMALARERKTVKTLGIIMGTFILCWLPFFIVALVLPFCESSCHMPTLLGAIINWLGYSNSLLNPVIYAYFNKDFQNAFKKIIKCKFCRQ
As to the kind of experiment: GloSensor cAMP assay, 5-HT1A Gi signaling in HEK 293T cells. It is filed as cell-based. On the technique in general: Changes in cAMP serve as a functional read-out for many G protein-coupled receptors.
Method: as §4, §3

Data set [11] relates to mice. Put plainly: Horizontal locomotor activity (HLA), side effect detection. The following applies: 25 mg/kg i.p., recorded 30 min, in contrast to 5-MeO-DMT, Fig. S10. It is filed as in vivo, C57BL/6 male mice. As to the method:
as §2

The mark [12] stands for this setting: PCPA + 5-OH-DMT 15 mg/kg + WAY100635 1 mg/kg i.p. versus PCPA + 5-OH-DMT.

T1 sequence (P28223 whole entry): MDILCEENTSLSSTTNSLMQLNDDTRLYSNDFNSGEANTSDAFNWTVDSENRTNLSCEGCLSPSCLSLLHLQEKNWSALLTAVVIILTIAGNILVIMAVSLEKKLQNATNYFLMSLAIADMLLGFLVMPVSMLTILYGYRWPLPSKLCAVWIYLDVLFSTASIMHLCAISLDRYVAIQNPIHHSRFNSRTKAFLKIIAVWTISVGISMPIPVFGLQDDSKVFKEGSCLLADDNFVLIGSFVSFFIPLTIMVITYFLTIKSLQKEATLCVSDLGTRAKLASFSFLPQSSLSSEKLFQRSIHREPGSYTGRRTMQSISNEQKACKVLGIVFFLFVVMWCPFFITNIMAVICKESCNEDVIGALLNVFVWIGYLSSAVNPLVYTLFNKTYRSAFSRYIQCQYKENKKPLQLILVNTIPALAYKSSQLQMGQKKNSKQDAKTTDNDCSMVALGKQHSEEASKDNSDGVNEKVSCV

In the case of `COc1ccccc1N1CCN(CCN(C(=O)C2CCCCC2)c2ccccn2)CC1` [WAY100635, reference compound], the Sucrose preference result in data set [1] is recorded as “reduced sucrose preference”. Also, the “Immobility time in FST” value in data set [2] was “significantly increased immobility time”. Further, in data set [3], the “Immobility time in TST” value was “significantly increased immobility time”. For the same compound, in data set [4], the “OFT time spent in center” value is given as “less time spent in center” and the “OFT total distance traveled” value is given as “less total distance traveled”.

Turning to `COc1ccc2[nH]cc(CCN(C)C)c2c1` [Compound 5-MeO-DMT, 5-methoxy-N,N-dimethyltryptamine], in data set [5] (ratio of EC50 values, times more potent), the “Potency at 5-HT2AR compared to 5-OH-DMT” value came to 100 times. For the same compound, the Sucrose preference entry in data set [6] is listed as “significantly counteract the reduction in sucrose preference induced by CUMS”. Besides, in [7], the “OFT time spent in the center” value was “increased” and the “OFT total distance traveled” value is “increased”. The “OFT total distance after 5-HT1AR was knocked down” value in data set [7] (CUMS, sh-5-HT1AR versus NC mice) was “reduced total distance”.

`CN(C)CCc1c[nH]c2ccc(O)cc12` [Compound 5-OH-DMT, 5-hydroxy-N,N-dimethyltryptamine]: the “Drop in potency with 5-HT2A” value in [5] (5-HT2A relative to 5-HT1A, times lower, Fig. 1A) was “roughly 10 times”. Besides, the “Sucrose preference, with addition of WAY100635” value in [1] (setting [12]) is “this increase was reversed by WAY100635”. In addition, the Sucrose preference result in data set [1] is listed as “increased sucrose preference”. Further, the “Loss in potency at A365^6.55F mutant” value in [8] was “around 1,000 fold”. Further, in [9], the “Head-twitch response (HTR)” value was “somewhat reduced”. In [10], this compound yielded a 50% effective concentration (EC50) of 0.1 µM. In addition, in data set [2] (setting [12]), the “Immobility time in FST, with addition of WAY100635” value is recorded as “prolonged the immobility time”. Also, the “Immobility time in FST” value in data set [2] is listed as “shorter immobility durations”. Moreover, the “Immobility time in TST, with addition of WAY100635” value in [3] (setting [12]) is given as “prolonged the immobility time”. In addition, the “Immobility time in TST” value in data set [3] is on record as “shorter immobility durations”. Besides, in [4] (setting [12]), the “OFT time spent in the center, with administration of WAY100635” value was “significantly recovered these changes” and the “OFT total distance, with administration of WAY100635” value was “significantly recovered these changes”. Also, in data set [4], the “OFT time spent in center” value is “dramatically increased” and the “OFT total distance traveled” value is recorded as “dramatically increased”. In addition, in data set [11], the “Horizontal locomotor activity (HLA), total distance” value was “somewhat reduced”. Moreover, the Sucrose preference result in data set [6] was “significantly counteract the reduction in sucrose preference induced by CUMS”. Besides, in [7], the “OFT time spent in the center” value was “increased” and the “OFT total distance traveled” value is on record as “increased”.

As for `C[N+](C)(C)CCc1c[nH]c2ccc([O-])cc12` [Compound 5-OH-TMT, 5-hydroxy-N,N,N-dimethyltryptamine], the EC50 in data set [5] was determined as 10 µM; in data set [10] (GloSensor cAMP, Gi activation, HEK 293T, Fig. 1A, read-out: EC50 at 5-HT1AR), 10 µM.
